Test results published in patent publication US20170121683A1, “ARYL HYDROCARBON RECEPTOR DISRUPTION AND ENHANCEMENT” (priority 2015, published 2017).

Test system: hESC-derived hematopoietic cells
Experiment: NK cell differentiation from spin-EBs on OP9-DL1, flow cytometry (Example 2)
Assay type: cell-based, human
Details: Days 11+21 and 11+28, 1 μM SR-1 or 10 nM TCDD
Description: FIG. 13A. Schema of hESC differentiation into lymphoid cells as spin-embryoid bodies (spin-EBs). hESCs are made into spin-EBs at Day 0 and cultured in Stage 1 conditions with defined cytokines to promote mesoderm development for 11 days. At Day 11, spin-EBs are transferred onto OP9-DL1 in the presence of NK cell differentiation media (NKDM) to promote lymphoid differentiation. Cells are treated beginning at Day 11+0 with either 1 μM SR-1, 10 nM TCDD, or DMSO vehicle control with media exchanges and/or harvesting performed every week for up to 4 weeks. FIG. 13B. At Day 11, differentiated spin-EBs (photo) are phenotyped for CD34^+CD45^+ expression and transferred to OP9-DL1 stroma in NKDM. Non-adherent hematopoietic cells cultured either in the presence of DMSO, SR-1, or TCDD were assessed for developing NK cell immunophenotype based on CD56^+CD45^+ expression at Days 11+21, and 11+28; representative flow cytometry plots from one differentiation are shown. FIG. 13C. Quantification of fold-change in total percentage of CD56^+CD45^+ cells at both Day 11+21 and Day 11+28 when treated with DMSO, SR-1, or TCDD. SR-1 and TCDD treatments for each differentiation are normalized to DMSO controls. n=3 independent differentiation experiments, error bars represent SEM, *p<0.05 as assessed with two-way ANOVA+Tukey-Kramer multiple comparisons post-hoc test. FIG. 13D. […]

Row | Structure (SMILES) | development of NK cells (CD56+CD45+) compared to DMSO treated controls
1 | CC(C)n1cnc2c(NCCc3ccc(O)cc3)nc(-c3csc4ccccc34)nc21 [SR-1, StemReginin-1] | increased development of NK cells
2 | Clc1cc2c(cc1Cl)Oc1cc(Cl)c(Cl)cc1O2 [TCDD, 2,3,7,8-tetrachlorodibenzo-p-dioxin] | fewer phenotypic NK cells
